{
  "source": "paper PMC5998028",
  "about": "“Synthesis, antimicrobial activity and conformational analysis of the class IIa bacteriocin pediocin PA-1 and analogs thereof” (Scientific Reports, 2018)",
  "key": {"M. luteus ATCC 10240": {"system": "M. luteus ATCC 10240", "test": "Antimicrobial assay", "assay_type": "cell-based, Micrococcus luteus", "settings": "at up to 100 µM"}, "[1]": {"system": "Escherichia coli ATCC 25922", "test": "MIC micro-dilution assay", "assay_type": "cell-based", "settings": "MH, 37 °C, 18 h"}, "[2]": {"system": "Enteroccocus faecalis ATCC 27275", "test": "MIC micro-dilution assay", "assay_type": "cell-based, Enterococcus faecalis", "settings": "BHI, 37 °C, 18 h"}, "[3]": {"system": "Lactobacillus acidophilus ATCC 4356", "test": "MIC micro-dilution assay", "assay_type": "cell-based", "settings": "MRS, 37 °C, 18 h"}, "[4]": {"system": "Enterococcus hirae ATCC 10541", "test": "MIC micro-dilution assay", "assay_type": "cell-based", "settings": "BHI, 37 °C, 18 h"}, "[5]": {"system": "Staphylococcus aureus ATCC 6538", "test": "MIC micro-dilution assay", "assay_type": "cell-based", "settings": "MH, 37 °C, 18 h"}, "[6]": {"system": "Bacillus subtilis ATCC 6633", "test": "MIC micro-dilution assay", "assay_type": "cell-based", "settings": "MH, 37 °C, 18 h"}, "[7]": {"system": "Lactococcus lactis ATCC 19257", "test": "MIC micro-dilution assay", "assay_type": "cell-based", "settings": "MRS, 37 °C, 18 h"}, "[8]": {"system": "Bacillus coagulans ATCC 7050", "test": "MIC micro-dilution assay", "assay_type": "cell-based", "settings": "MH, 37 °C, 18 h"}, "[9]": {"system": "Staphylococcus aureus ATCC 25923", "test": "MIC micro-dilution assay", "assay_type": "cell-based", "settings": "MH, 37 °C, 18 h"}, "C. perfringens": {"system": "C. perfringens", "assay_type": "cell-based, Clostridium perfringens", "settings": "radial diffusion assays, RCM"}, "[10]": {"system": "Clostridium tyrobutiricum ATCC 25755", "test": "MIC micro-dilution assay", "assay_type": "cell-based, Clostridium tyrobutyricum", "settings": "RCM, 37 °C, 18 h"}, "[11]": {"system": "Bacillus cereus LSPQ 2872", "test": "MIC micro-dilution assay", "assay_type": "cell-based", "settings": "MH, 37 °C, 18 h"}, "[12]": {"system": "Bifidobacterium animalis ATCC 27536", "test": "MIC micro-dilution assay", "assay_type": "cell-based", "settings": "RCM, 37 °C, 18 h"}, "[13]": {"system": "Staphylococcus aureus ATCC 29213", "test": "MIC micro-dilution assay", "assay_type": "cell-based", "settings": "MH, 37 °C, 18 h"}, "[14]": {"system": "Streptococcus thermophilus RBL 18 FYE 41", "test": "MIC micro-dilution assay", "assay_type": "cell-based", "settings": "MH, 37 °C, 18 h"}, "L. monocytogenes LSD530": {"system": "L. monocytogenes LSD530", "settings": "micro-dilution, twofold serial dilutions, 37 °C, 18 h, absorbance 595 nm, means of two independent experiments in duplicate"}, "[15]": {"system": "L. monocytogenes ATCC 19111", "settings": "L. monocytogenes ATCC 19111, soft agar TSBYE; 75 µL of 1 mg/mL peptide (or UL5 culture supernatant) per well; 37 °C, 18 h"}, "[16]": {"system": "L. ivanovii HPB28, L. monocytogenes LSD530, L. monocytogenes ATCC 19111", "settings": "L. ivanovii HPB28, L. monocytogenes LSD530 and ATCC 19111; micro-dilution, 37 °C, 18 h"}, "[17]": {"system": "L. monocytogenes ATCC 19111", "settings": "micro-dilution, twofold serial dilutions, 37 °C, 18 h, absorbance 595 nm, means of two independent experiments in duplicate"}, "P. acidilactici UL5": {"system": "P. acidilactici UL5", "test": "MIC micro-dilution assay", "assay_type": "cell-based, Pediococcus acidilactici", "settings": "P. acidilactici UL5 (pediocin producer, immune), 37 °C, 18 h, absorbance 595 nm, means of two independent experiments in duplicate"}, "L. ivanovii HPB28": {"system": "L. ivanovii HPB28", "settings": "micro-dilution, twofold serial dilutions, 37 °C, 18 h, absorbance 595 nm, means of two independent experiments in duplicate"}},
  "data": [
    {"compound": "CC[C@H](C)[C@@H]1NC(=O)[C@@H](NC(=O)[C@@H](NC(=O)[C@@H](NC(=O)[C@H](C)NC(=O)[C@H](CCCCN)NC(=O)CNC(=O)[C@H](Cc2c[nH]c3ccccc23)NC(=O)[C@H](CC(=O)O)NC(=O)[C@@H](NC(=O)[C@H](CO)NC(=O)[C@@H]2CSSC[C@H](NC(=O)[C@@H](NC(=O)[C@@H](NC(=O)CNC(=O)[C@H](CC(N)=O)NC(=O)CNC(=O)[C@H](Cc3ccc(O)cc3)NC(=O)[C@H](Cc3ccc(O)cc3)NC(=O)[C@@H](N)CCCCN)C(C)C)[C@@H](C)O)C(=O)NCC(=O)N[C@@H](CCCCN)C(=O)N[C@@H](Cc3c[nH]cn3)C(=O)N[C@@H](CO)C(=O)N2)C(C)C)[C@@H](C)O)[C@@H](C)O)CSSC[C@@H](C(=O)O)NC(=O)[C@H](CCCCN)NC(=O)[C@H](Cc2c[nH]cn2)NC(=O)[C@H](CC(N)=O)NC(=O)CNC(=O)[C@H](CCC(N)=O)NC(=O)[C@H](Cc2c[nH]cn2)NC(=O)CNC(=O)CNC(=O)[C@H]([C@@H](C)O)NC(=O)[C@H](C)NC(=O)[C@H](Cc2c[nH]c3ccccc23)NC(=O)[C@H](C)NC(=O)[C@H](CCSC)NC(=O)[C@H](C)NC(=O)CNC(=O)[C@H](CC(N)=O)NC(=O)[C@H](CC(N)=O)NC(=O)[C@H]([C@@H](C)CC)NC1=O", "note": "[3c, pediocin PA-1]", "values": [
      {"measurement": "activity against M. luteus ATCC 10240", "setting": "M. luteus ATCC 10240", "value": "no activity"}
    ]},
    {"compound": "CC[C@H](C)[C@H](NC(=O)[C@H](CS)NC(=O)[C@@H](NC(=O)[C@@H](NC(=O)[C@H](C)NC(=O)[C@H](CCCCN)NC(=O)CNC(=O)[C@H](Cc1c[nH]c2ccccc12)NC(=O)[C@H](CC(=O)O)NC(=O)[C@@H](NC(=O)[C@H](CO)NC(=O)[C@H](CS)NC(=O)[C@H](CO)NC(=O)[C@H](Cc1c[nH]cn1)NC(=O)[C@H](CCCCN)NC(=O)CNC(=O)[C@H](CS)NC(=O)[C@@H](NC(=O)[C@@H](NC(=O)CNC(=O)[C@H](CC(N)=O)NC(=O)CNC(=O)[C@H](Cc1ccc(O)cc1)NC(=O)[C@H](Cc1ccc(O)cc1)NC(=O)[C@@H](N)CCCCN)C(C)C)[C@@H](C)O)C(C)C)[C@@H](C)O)[C@@H](C)O)C(=O)N[C@H](C(=O)N[C@@H](CC(N)=O)C(=O)N[C@@H](CC(N)=O)C(=O)NCC(=O)N[C@@H](C)C(=O)N[C@@H](CC(C)C)C(=O)N[C@@H](C)C(=O)N[C@@H](Cc1c[nH]c2ccccc12)C(=O)N[C@@H](C)C(=O)N[C@H](C(=O)NCC(=O)NCC(=O)N[C@@H](Cc1c[nH]cn1)C(=O)N[C@@H](CCC(N)=O)C(=O)NCC(=O)N[C@@H](CC(N)=O)C(=O)N[C@@H](Cc1c[nH]cn1)C(=O)N[C@@H](CCCCN)C(=O)N[C@@H](CS)C(=O)O)[C@@H](C)O)[C@@H](C)CC", "note": "[compound 4]", "values": [
      {"measurement": "MIC", "setting": "[1]", "value": "n.a. (no activity detected at concentrations up to 100 µM)"},
      {"measurement": "MIC", "setting": "[2]", "value": "n.a. (no activity detected at concentrations up to 100 µM)"},
      {"measurement": "MIC", "setting": "[3]", "value": "n.a. (no activity detected at concentrations up to 100 µM)"},
      {"measurement": "MIC", "setting": "[4]", "value": "n.a. (no activity detected at concentrations up to 100 µM)"},
      {"measurement": "MIC", "setting": "[5]", "value": "n.a. (no activity detected at concentrations up to 100 µM)"},
      {"measurement": "MIC", "setting": "[6]", "value": "n.a. (no activity detected at concentrations up to 100 µM)"},
      {"measurement": "MIC", "setting": "[7]", "value": "n.a. (no activity detected at concentrations up to 100 µM)"},
      {"measurement": "MIC", "setting": "[8]", "value": "n.a. (no activity detected at concentrations up to 100 µM)"},
      {"measurement": "MIC", "setting": "[9]", "value": "n.a. (no activity detected at concentrations up to 100 µM)"},
      {"measurement": "inhibition diameters against C. perfringens, range over two strains", "setting": "C. perfringens", "value": "22–25 mm"},
      {"measurement": "MIC", "setting": "[10]", "value": "n.a. (no activity detected at concentrations up to 100 µM)"},
      {"measurement": "MIC", "setting": "[11]", "value": "n.a. (no activity detected at concentrations up to 100 µM)"},
      {"measurement": "MIC", "setting": "[12]", "value": "n.a. (no activity detected at concentrations up to 100 µM)"},
      {"measurement": "MIC", "setting": "[13]", "value": "n.a. (no activity detected at concentrations up to 100 µM)"},
      {"measurement": "MIC", "setting": "[14]", "value": "n.a. (no activity detected at concentrations up to 100 µM)"}
    ]},
    {"compound": "KYYGNGVTAGKHSASVDWGKATTAIINNGAMAWATGGHQGNHKA [compound 6]", "values": [
      {"measurement": "Minimal inhibitory concentration", "setting": "L. monocytogenes LSD530", "value": "n.a. (no activity detected at concentrations up to 100 µM)"},
      {"measurement": "Inhibition zone diameter", "setting": "[15]", "value": "no activity"},
      {"measurement": "MIC, range over the Listeria target strains", "setting": "[16]", "value": "completely inactive"},
      {"measurement": "Minimal inhibitory concentration", "setting": "[17]", "value": "n.a. (no activity detected at concentrations up to 100 µM)"},
      {"measurement": "Minimal inhibitory concentration", "setting": "P. acidilactici UL5", "value": "n.a. (no activity detected at concentrations up to 100 µM)"},
      {"measurement": "Minimal inhibitory concentration", "setting": "L. ivanovii HPB28", "value": "n.a.^a (no activity detected at concentrations up to 100 µM)"}
    ]}
  ]
}
